Measurements reported in patent publication US12077503B2, “Substituted cyclic amides and their use as herbicides” (FMC CORPORATION, priority 2015, dated 2024).

What was measured:
Type in all cases: in vivo
Kochia (Kochia scoparia) [1] = assay: Test A postemergence
From the text: (§1) Seeds of plant species selected from barnyardgrass (Echinochloa crus-galli), Kochia (Kochia scoparia), ragweed (common ragweed, Ambrosia elatior), ryegrass, Italian (Italian ryegrass, Lolium multiflorum), crabgrass, large (Digitaria sanguinalis), giant foxtail (Setaria faberii), green foxtail (Setaria viridis), morningglory (Ipomoea spp.), pigweed (Amaranthus retroflexus), velvetleaf (Abutilon theophrasti), wheat (Triticum aestivum), and corn (Zea mays) were planted into a blend of loam soil and sand and treated preemergence with a directed soil spray using test chemicals formulated in anon-phytotoxic solvent mixture which included a surfactant.
(§2) At the same time, plants selected from these crop and weed species and also blackgrass (Alopecurus myosuroides), and Galium (catchweed bedstraw, Galium aparine) were planted in pots containing the same blend of loam soil and sand and treated with postemergence applications of test chemicals formulated in the same manner. Plants ranged in height from 2 to 10 cm and were in the one- to two-leaf stage for the postemergence treatment. Treated plants and untreated controls were maintained in a greenhouse for approximately 10 d, after which time all treated plants were compared to untreated controls and visually evaluated for injury. Plant response ratings, summarized in Table A, are based on a 0 to 100 scale where 0 is no effect and 100 is complete control. A dash (-) response means no test result.

[2] = tested on: barnyardgrass (Echinochloa crus-galli); assay: Test A postemergence
From the text: as §1, §2

[3] = tested on: wheat (Triticum aestivum); assay: Test A postemergence
From the text: as §1, §2

[4] = tested on: ryegrass, Italian (Italian ryegrass, Lolium multiflorum); assay: Test A postemergence
From the text: as §1, §2

[5] = tested on: giant foxtail (Setaria faberii); assay: Test A postemergence
From the text: as §1, §2

[6] = tested on: blackgrass (Alopecurus myosuroides); assay: Test A postemergence
From the text: as §1, §2

corn (Zea mays) = assay: Test A postemergence
From the text: as §1, §2

[7] = tested on: ragweed (common ragweed, Ambrosia elatior); assay: Test A postemergence
From the text: as §1, §2

[8] = tested on: Galium (catchweed bedstraw, Galium aparine); assay: Test A postemergence
From the text: as §1, §2

[9] = tested on: pigweed (Amaranthus retroflexus); assay: Test A postemergence
From the text: as §1, §2

[10] = tested on: barnyardgrass (Echinochloa crus-galli); assay: Test B flooded paddy test; conditions: Flood, 0 to 100 scale where 0 is no effect and 100 is complete control, 13 to 15 d
Summary of the method: (§3)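 Percent control, visually estimated after 13–15 d in the greenhouse on a 0–100 basis, compares treated pots with untreated ones; compound was put into paddy water 3 cm above the soil when plants had two leaves.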

[11] = tested on: sedge, umbrella (small-flower umbrella sedge, Cyperus difformis); assay: Test B flooded paddy test; conditions: Flood, 0 to 100 scale where 0 is no effect and 100 is complete control, 13 to 15 d
Summary of the method: as §3

rice (Oryra sativa) = assay: Test B flooded paddy test; conditions: Flood, 0 to 100 scale where 0 is no effect and 100 is complete control, 13 to 15 d
Summary of the method: as §3

[12] = tested on: ducksalad (Heteranthera limosa); assay: Test B flooded paddy test; conditions: Flood, 0 to 100 scale where 0 is no effect and 100 is complete control, 13 to 15 d
Summary of the method: as §3

Kochia (Kochia scoparia) [13] = assay: Test A preemergence; conditions: for Plant response rating, Kochia: 125 g ai/ha; for Kochia plant response rating (0 to 100 scale, 0 is no effect, 100 is complete control): 500 g ai/ha, visual injury approx. 10 d
From the text: as §1, §2

[14] = tested on: barnyardgrass (Echinochloa crus-galli); assay: Test A preemergence; conditions: for Plant response rating, Barnyardgrass: 125 g ai/ha; for Barnyardgrass plant response rating (0 to 100 scale, 0 is no effect, 100 is complete control): 500 g ai/ha, visual injury approx. 10 d
From the text: as §1, §2

[15] = tested on: ryegrass, Italian (Italian ryegrass, Lolium multiflorum); assay: Test A preemergence; conditions: for Plant response rating, Ryegrass, Italian: 125 g ai/ha; for Ryegrass, Italian plant response rating (0 to 100 scale, 0 is no effect, 100 is complete control): 500 g ai/ha, visual injury approx. 10 d
From the text: as §1, §2

[16] = tested on: giant foxtail (Setaria faberii); assay: Test A preemergence; conditions: for Plant response rating, Foxtail, Giant: 125 g ai/ha; for Foxtail, Giant plant response rating (0 to 100 scale, 0 is no effect, 100 is complete control): 500 g ai/ha, visual injury approx. 10 d
From the text: as §1, §2

[17] = tested on: ragweed (common ragweed, Ambrosia elatior); assay: Test A preemergence; conditions: for Plant response rating, Ragweed: 125 g ai/ha; for Ragweed plant response rating (0 to 100 scale, 0 is no effect, 100 is complete control): 500 g ai/ha, visual injury approx. 10 d
From the text: as §1, §2

[18] = tested on: pigweed (Amaranthus retroflexus); assay: Test A preemergence; conditions: for Plant response rating, Pigweed: 125 g ai/ha; for Pigweed plant response rating (0 to 100 scale, 0 is no effect, 100 is complete control): 500 g ai/ha, visual injury approx. 10 d
From the text: as §1, §2

[19] = 125 g ai/ha, postemergence, visual rating after approx. 10 d, 0 to 100 scale (0 no effect, 100 complete control)
[20] = Postemergence, 500 g ai/ha, 0 to 100 scale where 0 is no effect and 100 is complete control
[21] = Preemergence, visual injury after approximately 10 d, 0 to 100 scale where 0 is no effect and 100 is complete control
[22] = 125 g ai/ha, postemergence, visual injury rating on 0 to 100 scale (0 no effect, 100 complete control), approx. 10 d
[23] = 500 g ai/ha, postemergence, 0 to 100 scale, 0 no effect, 100 complete control
[24] = preemergence, 0 to 100 scale (0 no effect, 100 complete control)

## C#CCN1CC(c2cccc(C(F)(F)F)c2)C(C(=O)Nc2ccccc2F)C1=O (stereo not drawn) [Compound 607]
Kochia (Kochia scoparia) [1]; [19]
  Plant response rating, Kochia: 0
Kochia (Kochia scoparia) [1]; [20]
  Plant response rating, Kochia: 0
[2]; [19]
  Plant response rating, Barnyardgrass: 20
[2]; [20]
  Plant response rating, Barnyardgrass: 60
[3]; [19]
  Plant response rating, Wheat: 0
[3]; [20]
  Plant response rating, Wheat: 20
[4]; [19]
  Plant response rating, Ryegrass, Italian: 0
[4]; [20]
  Plant response rating, Ryegrass, Italian: 0
[5]; [19]
  Plant response rating, Foxtail, Giant: 20
[5]; [20]
  Plant response rating, Foxtail, Giant: 60
[6]; [19]
  Plant response rating, Blackgrass: 0
[6]; [20]
  Plant response rating, Blackgrass: 0
Corn (Zea mays); [19]
  Plant response rating, Corn: 0
Corn (Zea mays); [20]
  Plant response rating, Corn: 0
[7]; [19]
  Plant response rating, Ragweed: 0
[7]; [20]
  Plant response rating, Ragweed: 0
[8]; [19]
  Plant response rating, Galium: 0
[8]; [20]
  Plant response rating, Galium: 0
[9]; [19]
  Plant response rating, Pigweed: 0
[9]; [20]
  Plant response rating, Pigweed: 0
[10]; 250 g ai/ha
  Plant response rating, Barnyardgrass: 0
[11]; 250 g ai/ha
  Plant response rating, Sedge, Umbrella: 0
Rice (Oryra sativa); 250 g ai/ha
  Plant response rating, Rice: 0
[12]; 250 g ai/ha
  Plant response rating, Ducksalad: 50
Kochia (Kochia scoparia) [13]; [21]
  Plant response rating, Kochia: 0
Kochia (Kochia scoparia) [13]; Preemergence
  Kochia plant response rating (0 to 100 scale, 0 is no effect, 100 is complete control): 0
[14]; [21]
  Plant response rating, Barnyardgrass: 0
[14]; Preemergence
  Barnyardgrass plant response rating (0 to 100 scale, 0 is no effect, 100 is complete control): 30
[15]; [21]
  Plant response rating, Ryegrass, Italian: 0
[15]; Preemergence
  Ryegrass, Italian plant response rating (0 to 100 scale, 0 is no effect, 100 is complete control): 0
[16]; [21]
  Plant response rating, Foxtail, Giant: 80
[16]; Preemergence
  Foxtail, Giant plant response rating (0 to 100 scale, 0 is no effect, 100 is complete control): 90
[17]; [21]
  Plant response rating, Ragweed: 0
[17]; Preemergence
  Ragweed plant response rating (0 to 100 scale, 0 is no effect, 100 is complete control): 0
[18]; [21]
  Plant response rating, Pigweed: 0
[18]; Preemergence
  Pigweed plant response rating (0 to 100 scale, 0 is no effect, 100 is complete control): 0

## COc1cccc(NC(=O)C2C(=O)NCC2c2ccc(F)c(F)c2)c1F (stereo not drawn) [Compound 416]
Kochia (Kochia scoparia) [1]; [22]
  Kochia plant response rating: 0
Kochia (Kochia scoparia) [1]; [23]
  Plant response rating, Kochia: 0
[2]; [22]
  Barnyardgrass plant response rating: 0
[2]; [23]
  Plant response rating, Barnyardgrass: 0
[3]; [22]
  Wheat plant response rating: 0
[3]; [23]
  Plant response rating, Wheat: 0
[4]; [22]
  Ryegrass, Italian plant response rating: 0
[4]; [23]
  Plant response rating, Ryegrass, Italian: 0
[5]; [22]
  Foxtail, Giant plant response rating: 0
[5]; [23]
  Plant response rating, Foxtail, Giant: 0
[6]; [22]
  Blackgrass plant response rating: 0
[6]; [23]
  Plant response rating, Blackgrass: 0
Corn (Zea mays); [22]
  Corn plant response rating: 0
Corn (Zea mays); [23]
  Plant response rating, Corn: 0
[7]; [22]
  Ragweed plant response rating: 0
[7]; [23]
  Plant response rating, Ragweed: 0
[8]; [22]
  Galium plant response rating: 0
[8]; [23]
  Plant response rating, Galium: 0
[9]; [22]
  Pigweed plant response rating: 0
[9]; [23]
  Plant response rating, Pigweed: 0
[10]; 500 g ai/ha
  Plant response rating, Barnyardgrass: 0
[11]; 500 g ai/ha
  Plant response rating, Sedge, Umbrella: 0
Rice (Oryra sativa); 500 g ai/ha
  Plant response rating, Rice: 15
[12]; 500 g ai/ha
  Plant response rating, Ducksalad: 50
Kochia (Kochia scoparia) [13]; [24]
  Plant response rating, Kochia: 0
Kochia (Kochia scoparia) [13]; Preemergence
  Kochia plant response rating (0 to 100 scale, 0 is no effect, 100 is complete control): 0
[14]; [24]
  Plant response rating, Barnyardgrass: 0
[14]; Preemergence
  Barnyardgrass plant response rating (0 to 100 scale, 0 is no effect, 100 is complete control): 0
[15]; [24]
  Plant response rating, Ryegrass, Italian: 0
[15]; Preemergence
  Ryegrass, Italian plant response rating (0 to 100 scale, 0 is no effect, 100 is complete control): 0
[16]; [24]
  Plant response rating, Foxtail, Giant: 0
[16]; Preemergence
  Foxtail, Giant plant response rating (0 to 100 scale, 0 is no effect, 100 is complete control): 50
[17]; [24]
  Plant response rating, Ragweed: 0
[17]; Preemergence
  Ragweed plant response rating (0 to 100 scale, 0 is no effect, 100 is complete control): 0
[18]; [24]
  Plant response rating, Pigweed: 0
[18]; Preemergence
  Pigweed plant response rating (0 to 100 scale, 0 is no effect, 100 is complete control): 0
